Data set [1] in a line: Antiproliferative activity against mouse NIH-3T3 cells by MTT assay. In kind it is cell-based, NIH3T3. As to conditions: for IC50: Mus musculus, NIH3T3; for Activity: mouse, nih3t3.
The next data set has as its system Jurkat. The data set can be described thus: Antiproliferative activity against human Jurkat E6-1 cells by MTT assay. In kind it is functional, cell-based.
Data set [2] in a line: (§1) Antiproliferative activity against human GLC-4S cells by MTT assay. In kind it is functional, cell-based.
The subject of the next data set is GLC-4S. The description is as §1. In kind it is functional, cell-based.

The source made the active and inactive calls. The rule behind the calls is not given here.

Broadly, the IC50 is the concentration that inhibits the measured activity by half. Low readings indicate higher potency, high ones lower potency. Regarding `CC(=O)N[C@H]1C[C@@H](C(=O)N[C@H]2C[C@@H](C(=O)N[C@H]3C[C@@H](C(N)=O)N(C(=O)CNC(=O)c4c5ccccc5nc5ccccc45)C3)N(C(=O)CNC(=O)c3c4ccccc4nc4ccccc34)C2)N(C(=O)CNC(=O)c2c3ccccc3nc3c2[nH]c2ccccc23)C1`, the figures for the IC50 (in data set [1]; in the data set on Jurkat; in data set [2]) were 357 µM, 129 µM and 169 µM, respectively.
As for `COC(=O)CNC(=O)c1c2ccccc2nc2c1[nH]c1ccccc12`, in data set [1], the Activity result is recorded as “Not Active”. Further, the IC50 in the data set with Jurkat turned out to be 8 µM. The outcome in the data set with GLC-4S was inactive.
Take `CC(=O)N[C@H]1C[C@@H](C(=O)N[C@H]2C[C@@H](C(N)=O)N(C(=O)CNC(=O)c3c4ccccc4nc4c3[nH]c3ccccc34)C2)N(C(=O)CNC(=O)c2c3ccccc3nc3c2[nH]c2ccccc23)C1`: in data set [1], the Activity entry is listed as “Not Active”. The values for the half-inhibitory concentration (IC50) (in the data set with Jurkat; in data set [2]) were 37 µM and 54 µM, respectively.
As for `COC(=O)CNC(=O)c1c2ccccc2nc2ccccc12`, in data set [1], the Activity entry was “Not Active”. Moreover, the outcome in the data set with Jurkat and with GLC-4S was inactive.
For `O=C(O)CNC(=O)c1c2ccccc2nc2ccccc12`, in data set [1], the Activity entry is on record as “Not Active”. In addition, the outcome in the data set on Jurkat and in the data set on GLC-4S was inactive.
As to `CC(=O)N[C@H]1C[C@@H](C(=O)N[C@H]2C[C@@H](C(N)=O)N(C(=O)CNC(=O)c3c4ccccc4nc4ccccc34)C2)N(C(=O)CNC(=O)c2c3ccccc3nc3c2[nH]c2ccccc23)C1`, the Activity result in data set [1] is listed as “Not Active”. Besides, the IC50 with Jurkat was found to be 120 µM; in data set [2] it was 165 µM.
For `CC(=O)N[C@H]1C[C@@H](C(=O)N[C@H]2C[C@@H](C(N)=O)N(C(=O)CNC(=O)c3c4ccccc4nc4ccccc34)C2)N(C(=O)CNC(=O)c2c3ccccc3nc3ccccc23)C1`, the Activity result in data set [1] is “Not Active”. The IC50 was 149 µM in the data set on Jurkat and 135 µM in data set [2].
Take `CC(=O)N[C@H]1C[C@@H](C(=O)N[C@H]2C[C@@H](C(=O)N[C@H]3C[C@@H](C(N)=O)N(C(=O)CNC(=O)c4c5ccccc5nc5c4[nH]c4ccccc45)C3)N(C(=O)CNC(=O)c3c4ccccc4nc4ccccc34)C2)N(C(=O)CNC(=O)c2c3ccccc3nc3c2[nH]c2ccccc23)C1`: the IC50 was found to be 263 µM in data set [1], 112 µM in the data set with Jurkat and 82 µM in data set [2].
The like results for `CC(=O)N[C@H]1C[C@@H](C(=O)N[C@H]2C[C@@H](C(=O)N[C@H]3C[C@@H](C(N)=O)N(C(=O)CNC(=O)c4c5ccccc5nc5c4[nH]c4ccccc45)C3)N(C(=O)CNC(=O)c3c4ccccc4nc4c3[nH]c3ccccc34)C2)N(C(=O)CNC(=O)c2c3ccccc3nc3ccccc23)C1` were, in that order, 227 µM, 103 µM and 151 µM.
In the case of `CC(=O)N[C@H]1C[C@@H](C(=O)N[C@H]2C[C@@H](C(=O)N[C@H]3C[C@@H](C(N)=O)N(C(=O)CNC(=O)c4c5ccccc5nc5ccccc45)C3)N(C(=O)CNC(=O)c3c4ccccc4nc4c3[nH]c3ccccc34)C2)N(C(=O)CNC(=O)c2c3ccccc3nc3ccccc23)C1`, the Activity result in data set [1] was “Not Active”. The IC50 in the data set with Jurkat worked out at 87 µM; in data set [2], 91 µM.
For `O=C(O)CNC(=O)c1c2ccccc2nc2c1[nH]c1ccccc12`, in data set [1], the Activity entry is given as “Not Active”. Also, the IC50 in the data set on Jurkat turned out to be 12 µM. In the data set with GLC-4S, the result was inactive.
Turning to `CC(=O)N[C@H]1C[C@@H](C(=O)N[C@H]2C[C@@H](C(=O)N[C@H]3C[C@@H](C(N)=O)N(C(=O)CNC(=O)c4c5ccccc5nc5c4[nH]c4ccccc45)C3)N(C(=O)CNC(=O)c3c4ccccc4nc4ccccc34)C2)N(C(=O)CNC(=O)c2c3ccccc3nc3ccccc23)C1`, the IC50 in data set [1] was 426 µM; in the data set with Jurkat, 86 µM; in data set [2] it was 174 µM.
`CC(=O)N[C@H]1C[C@@H](C(=O)N[C@H]2C[C@@H](C(N)=O)N(C(=O)CNC(=O)c3c4ccccc4nc4c3[nH]c3ccccc34)C2)N(C(=O)CNC(=O)c2c3ccccc3nc3ccccc23)C1`: the IC50 was 376 µM in data set [1], 92 µM in the data set with Jurkat and 125 µM in data set [2].
For the compound `CC(=O)N[C@H]1C[C@@H](C(=O)NC2C[C@@H](C(=O)NC3C[C@@H](C(N)=O)N(C(=O)CNC(=O)c4c5ccccc5nc5ccccc45)C3)N(C(=O)CNC(=O)c3c4ccccc4nc4ccccc34)C2)N(C(=O)CNC(=O)c2c3ccccc3nc3ccccc23)C1` (some centres not stated), the Activity entry in data set [1] is on record as “Not Active”. Also, the outcome in the data set with Jurkat was inactive. This compound showed an IC50 in data set [2] of 134 µM.

Values taken from ChEMBL document CHEMBL1144683, “Design, synthesis and antiproliferative properties of oligomers with chromophore units linked by amide backbones” (Bioorg Med Chem Lett, 2008).
